Data: US10611748B2, “Xanthone derivatives for the treatment of hepatitis B virus disease” (Hoffmann-La Roche Inc., priority 2017, dated 2020)

Tested on: extracellular HBeAg level (surrogate marker for cccDNA) in HepDES19 cells
Assay: HepDES19 primary screen assay
Assay type: cell-based, HBV
Conditions: Hepatitis B virus, 120 h, 5 days compound incubation, HBeAg ELISA
Source text: The assay was employed to primarily screen for novel cccDNA inhibitors. HepDES19 is an engineered cell line which contains a 1.1 unit length HBV genome, and pgRNA transcription from the transgene is controlled by Tetracycline (Tet). In the absence of Tet, pgRNA transcription will be induced, but HBV e antigen (HBeAg) could not be produced from this pgRNA due to the fact that the very short leader sequence before the HBeAg start codondisrupted the start codon. Only after cccDNA is formed, the missing leader sequence and start codon mutation would be restored from the 3′-terminal redundancy of pgRNA, and then HBeAg could be synthesized. Therefore, HBeAg could be used as a surrogate marker for cccDNA (Zhou, T. et al., Antiviral Res(2006), 72(2), 116-124; Guo, H. et al., J. Virol (2007), 81(22), 12472-12484).
HepDES19 cells were seeded at 2×10^6 cells per T150 flask and cultured with the culture medium (Dulbecco's Modified Eagle Medium: Nutrient Mixture F-12 (DMEM:F12, Gibco Cat. 11320-82), 10% Fetal Bovine Serum (FBS, Clontech Cat. 631101), 0.1 mM Non-Essential Amino Acids Solution (NEAA, Gibco Cat. 11140-050), 50 μg/mL Penicillin-Streptomycin (PS, Invitrogen Cat. 15140-163), 500 μg/mL Geneticin (G418, Invitrogen Cat. 10131-027) containing 3 μg/mL Tet (Sigma, Cat. 87128) for 5 days. Cells were then seeded at 4×10^6 cells per T150 in the same culture medium as described above in the absence of Tet for 8 days. Cells were then harvested and frozen at density of 2×10^6 cells per mL. For compound testing, the frozen cells were thawed and seeded into 96-well plates at a density of 6×10^4 cells per well. At 24 hrs after seeding, half log serial dilutions of compounds made with Dimethyl sulfoxide (DMSO, Sigma, Cat. D2650) were further diluted with the same culture medium as described above before they were added to the cells to reach desired final compound concentrations and 1% DMSO concentration. Plates were then incubated at 37° C. for another 5 days before measurement of HBeAg level and cell viability. Extracellular HBeAg level were measured with enzyme-linked immunosorbent assay (ELISA) kit (Shanghai Kehua Diagnostic Medical Products Co., Ltd). Cell viability was assessed using Cell Counting Kit-8 (Donjindo, Cat. CK04-20). IC50 values were derived from the dose-response curve using 4 parameter logistic curve fit method.
The compounds of the present invention were tested for their capacity to inhibit extracellular HBeAg level as described herein.

Compound | IC50
CC1(C)CN(c2ccc3c(=O)c4cccc(Cl)c4oc3c2)CC1C(=O)O (centres unmarked) [Example 17, 1-(5-chloro-9-oxo-xanthen-3-yl)-4,4-dimethyl-pyrrolidine-3-carboxylic Acid] | 12.7 µM
O=C(O)C1CCCN(c2ccc3c(=O)c4cccc(Cl)c4oc3c2)C1 (centres unmarked) [Example 14, 1-(5-chloro-9-oxo-xanthen-3-yl)piperidine-3-carboxylic acid] | 5.79 µM
O=C(O)[C@H]1CN(c2ccc3c(=O)c4cccc(Cl)c4oc3c2)C[C@@H]1c1cccnc1 [Example 18, (3R,4S)-1-(5-chloro-9-oxo-xanthen-3-yl)-4-(3-pyridyl)pyrrolidine-3-carboxylic Acid] | 16.6 µM
Clc1cccc2c1Oc1c(cc(Cl)c(N3CCCC3)c1Cl)C2 [Example 56, 1-(2,4,5-trichloro-9H-xanthen-3-yl)pyrrolidine] | 6.28 µM
O=c1c2ccc(N3CCCNCC3)cc2oc2c(F)cccc12 [Example 49, 3-(1,4-diazepan-1-yl)-5-fluoro-xanthen-9-one] | 7.56 µM
O=C(O)[C@H]1CCN(c2ccc3c(=O)c4cccc(Cl)c4sc3c2)C1 [Example 72, (3S)-1-(5-chloro-9-oxo-thioxanthen-3-yl)pyrrolidine-3-carboxylic Acid] | 3.6 µM
CC1c2ccc(N3CCC(C(=O)O)C3)cc2Oc2c(Cl)cccc21 (centres unmarked) [Example 75, 1-(5-chloro-9-methyl-9H-xanthen-3-yl)pyrrolidine-3-carboxylic Acid] | 10.1 µM
FC(F)(F)C1c2ccc(N3CCCC3)cc2Oc2c(Cl)cccc21 (centres unmarked) [Example 61, 1-[5-chloro-9-(trifluoromethyl)-9H-xanthen-3-yl]pyrrolidine] | 31 µM
O=c1c2ccc(N3CCC(c4ccncc4)C3)cc2oc2c(F)cccc12 (centres unmarked) [Example 34, 5-fluoro-3-[3-(4-pyridyl)pyrrolidin-1-yl]xanthen-9-one] | 6.15 µM
O=c1c2ccc(N3CCC(O)C3)cc2oc2c(F)cccc12 (centres unmarked) [Example 24, 5-fluoro-3-(3-hydroxypyrrolidin-1-yl)xanthen-9-one] | 1.05 µM
O=c1c2ccc(N3CC[C@H](O)C3)cc2oc2c(F)cccc12 [Example 31, 5-fluoro-3-[(3S)-3-hydroxypyrrolidin-1-yl]xanthen-9-one] | 2.71 µM
O=c1c2ccc(N3CCC(CO)C3)cc2oc2c(Cl)cccc12 (centres unmarked) [Example 10, 5-chloro-3-[3-(hydroxymethyl)pyrrolidin-1-yl]xanthen-9-one] | 1.13 µM
O=c1c2ccc(N3CCOCC3)cc2oc2c(F)cccc12 [Example 29, 5-fluoro-3-morpholino-xanthen-9-one] | 2.13 µM
OC1(C(F)(F)F)c2ccc(N3CCCC3)cc2Oc2c(Cl)cccc21 (centres unmarked) [Example 59, 5-chloro-3-pyrrolidin-1-yl-9-(trifluoromethyl)xanthen-9-ol] | 19.2 µM
Cc1cc2c(=O)c3cccc(F)c3oc2cc1N1CCCC1 [Example 25, 5-fluoro-2-methyl-3-pyrrolidin-1-yl-xanthen-9-one] | 1.52 µM
CC1c2ccc(N3CCCC3)cc2Oc2c(Cl)cccc21 (centres unmarked) [Example 54, 1-(5-chloro-9-methyl-9H-xanthen-3-yl)pyrrolidine] | 1.6 µM
N[C@@H]1CCN(c2ccc3c(=O)c4cccc(F)c4oc3c2)C1 [Example 51, 3-[(3R)-3-aminopyrrolidin-1-yl]-5-fluoro-xanthen-9-one] | 4.85 µM
O=c1c2ccc(N3CC[C@H](O)C3)cc2oc2c(Cl)cccc12 [Example 27, 5-chloro-3-[(3S)-3-hydroxypyrrolidin-1-yl]xanthen-9-one] | 1.95 µM
O=C(O)[C@@H]1CN(c2ccc3c(=O)c4cccc(Cl)c4oc3c2)C[C@H]1c1ccc(Cl)cc1 [Example 20, (3S,4R)-1-(5-chloro-9-oxo-xanthen-3-yl)-4-(4-chlorophenyl)pyrrolidine-3-carboxylic Acid] | 46.6 µM
O=C(O)[C@@H]1CCN(c2ccc3c(=O)c4c(Cl)ccc(Cl)c4oc3c2)C1 [Example 69, (3R)-1-(5,8-dichloro-9-oxo-xanthen-3-yl)pyrrolidine-3-carboxylic Acid] | 0.96 µM
